# Data taken from US20240158446A1, “CYCLIC COMPOUND HAVING SELECTIVE INHIBITORY ACTION ON KRAS OVER HRAS AND NRAS” (CHUGAI SEIYAKU KABUSHIKI KAISHA, priority 2021, published 2024).
# What was measured:
# [1] = molecular target: GDP-bound NRAS wild-type protein (Homo sapiens, UniProt P01111); experiment: Binding to NRAS by surface plasmon resonance (SPR), Single Cycle Kinetics; details: ratio of KD for GDP-bound NRAS wild-type protein to KD for KRAS, SPR
# [2] = test system: human lung cancer strain NCI-H441; experiment: cells; details: NCI-H441, 96 h, read-out: NCI-H441 IC50 (nM), NCI-H441 cell proliferation, 4 days, CellTiter-Glo;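 note: cell proliferation inhibition after four days measured by CellTiter-Glo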
# [3] = molecular target: GDP-bound HRAS wild-type protein (Homo sapiens, UniProt P01112); experiment: Binding to HRAS by surface plasmon resonance (SPR), Single Cycle Kinetics; details: ratio of KD for GDP-bound HRAS wild-type protein to KD for KRAS, SPR
# [4] = molecular target: GDP-bound KRAS wild-type protein (Homo sapiens, UniProt P01116); experiment: Binding to KRAS by surface plasmon resonance (SPR), Single Cycle Kinetics; details: SPR, Single Cycle Kinetics, GDP-bound KRAS wild-type protein; read-out: KRAS KD
# GDP-bound KRAS wild-type protein, sequence (P01116 whole entry): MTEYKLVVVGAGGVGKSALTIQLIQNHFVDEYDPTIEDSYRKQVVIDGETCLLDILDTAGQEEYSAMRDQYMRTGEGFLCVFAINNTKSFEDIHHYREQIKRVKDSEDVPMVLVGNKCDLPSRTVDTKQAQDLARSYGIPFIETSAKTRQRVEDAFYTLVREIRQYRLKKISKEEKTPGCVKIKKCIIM
# GDP-bound NRAS wild-type protein, sequence (P01111 whole entry): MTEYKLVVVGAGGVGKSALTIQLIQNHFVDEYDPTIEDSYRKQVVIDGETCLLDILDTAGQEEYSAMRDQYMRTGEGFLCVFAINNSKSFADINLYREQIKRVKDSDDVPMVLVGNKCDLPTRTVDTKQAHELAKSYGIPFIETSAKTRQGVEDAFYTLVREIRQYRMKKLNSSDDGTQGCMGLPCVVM
# GDP-bound HRAS wild-type protein, sequence (P01112 whole entry): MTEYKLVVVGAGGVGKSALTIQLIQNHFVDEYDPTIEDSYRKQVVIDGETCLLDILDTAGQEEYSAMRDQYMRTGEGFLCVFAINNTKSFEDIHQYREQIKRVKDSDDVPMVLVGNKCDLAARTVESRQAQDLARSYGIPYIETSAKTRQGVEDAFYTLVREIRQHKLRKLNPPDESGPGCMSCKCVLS
compound,measurement,setting,value
CCCN(C)C(=O)[C@@H]1CC(=O)N(C)[C@@H](CC)C(=O)N[C@@H]([C@@H](C)CC)C(=O)N(C)CC(=O)N(C)[C@H]2C/C=C\CCN(C2=O)[C@@H](Cc2ccc(C(F)(F)F)cc2)C(=O)N(C)CC(=O)N[C@@H](CCc2cc(F)c(C(F)(F)F)c(F)c2)C(=O)N2C[C@H](OCC)C[C@H]2C(=O)NC2(CC(C)(C)C2)C(=O)N(C)[C@@H](C2CCCC2)C(=O)N1C [PP1670],NRAS/KRAS (KD ratio),[1],A (a compound having 10 or more and less than 20 is denoted as A)
same,IC50,[2],6.7 nM
same,HRAS/KRAS (KD ratio),[3],A (a compound having 10 or more and less than 20 is denoted as A)
same,Kd,[4],0.1 nM
CC[C@H](C)[C@@H]1NC(=O)[C@H](C(C)C)N(C)C(=O)C[C@@H](C(=O)N(C)CC)N(C)C(=O)[C@H](C2CCCC2)N(C)C(=O)C2(CC(C)(C)C2)NC(=O)[C@@H]2C[C@H](C)CN2C(=O)[C@H](CCc2cc(F)c(C(F)(F)F)c(F)c2)NC(=O)CN(C)C(=O)[C@H](Cc2ccc(C(F)(F)F)cc2)N2CC/C=C\C[C@@H](C2=O)N(C)C(=O)CN(C)C1=O [PP1976],NRAS/KRAS (KD ratio),[1],AA (a compound having 20 or more is denoted as AA)
same,IC50,[2],92 nM
same,HRAS/KRAS (KD ratio),[3],A (a compound having 10 or more and less than 20 is denoted as A)
same,Kd,[4],0.37 nM
CCO[C@@H]1C[C@H]2C(=O)NC3(CC(C)(C)C3)C(=O)N(C)[C@@H](C3CCCC3)C(=O)N(C)[C@H](C(=O)N(C)CC)CC(=O)N(C)[C@@H](CC3CC3)C(=O)N[C@@H]([C@@H](C)CC)C(=O)N(C)CC(=O)N(C)[C@H]3C/C=C\CCN(C3=O)[C@@H](Cc3ccc(C(F)(F)F)cc3)C(=O)N(C)CC(=O)N[C@@H](CCc3ccc(C(F)(F)F)c(OC)c3)C(=O)N2C1 [PP1678],NRAS/KRAS (KD ratio),[1],A (a compound having 10 or more and less than 20 is denoted as A)
same,IC50,[2],5.6 nM
same,HRAS/KRAS (KD ratio),[3],B (a compound having 3 or more and less than 10 is denoted as B)
same,Kd,[4],0.17 nM
CCO[C@@H]1C[C@H]2C(=O)NC3(CC(C)(C)C3)C(=O)N(C)[C@@H](C3CCCC3)C(=O)N3CCC[C@@H]3CC(=O)N(C)[C@@H](CC)C(=O)N[C@@H]([C@@H](C)CC)C(=O)N(C)CC(=O)N(C)[C@H]3C/C=C\CCN(C3=O)[C@@H](CC3CCCCC3)C(=O)N(C)CC(=O)N[C@@H](CCc3cc(F)c(C(F)(F)F)c(F)c3)C(=O)N2C1 [PP1620],NRAS/KRAS (KD ratio),[1],B (a compound having 3 or more and less than 10 is denoted as B)
same,IC50,[2],170 nM
same,HRAS/KRAS (KD ratio),[3],B (a compound having 3 or more and less than 10 is denoted as B)
same,Kd,[4],6.4 nM
CC[C@H](C)[C@@H]1NC(=O)[C@H](CC(C)C)N(C)C(=O)C[C@@H](C(=O)N(C)C)N(C)C(=O)[C@H](C2CCCC2)N(C)C(=O)C2(CCC2)NC(=O)[C@@H]2C[C@H](C)CN2C(=O)[C@H](CCc2cc(F)c(C(F)(F)F)c(F)c2)NC(=O)CN(C)C(=O)[C@H](Cc2ccc(C)cc2)N2CC/C=C\C[C@@H](C2=O)N(C)C(=O)CN(C)C1=O [PP1864],NRAS/KRAS (KD ratio),[1],A (a compound having 10 or more and less than 20 is denoted as A)
same,IC50,[2],10.2 nM
same,HRAS/KRAS (KD ratio),[3],B (a compound having 3 or more and less than 10 is denoted as B)
same,Kd,[4],0.064 nM
CC[C@H](C)[C@@H]1NC(=O)[C@H](CC(F)(F)F)N(C)C(=O)C[C@@H](C(=O)N(C)C)N(C)C(=O)[C@H](C2CCCC2)N(C)C(=O)C2(CC(C)(C)C2)NC(=O)[C@@H]2C[C@H](C)CN2C(=O)[C@H](CCc2cc(F)c(C(F)(F)F)c(F)c2)NC(=O)CN(C)C(=O)[C@H](Cc2ccc(C(F)(F)F)cc2)N2CC/C=C\C[C@@H](C2=O)N(C)C(=O)CN(C)C1=O [PP1682],NRAS/KRAS (KD ratio),[1],AA (a compound having 20 or more is denoted as AA)
same,IC50,[2],2.6 nM
same,HRAS/KRAS (KD ratio),[3],A (a compound having 10 or more and less than 20 is denoted as A)
same,Kd,[4],0.082 nM
CCC[C@H]1C(=O)N[C@@H]([C@@H](C)CC)C(=O)N(CCC)CC(=O)N(C)[C@H]2C/C=C\CCN(C2=O)[C@@H](Cc2ccc(C(F)(F)F)cc2)C(=O)N(C)CC(=O)N[C@@H](CCc2cc(F)c(C(F)(F)F)c(F)c2)C(=O)N2C[C@H](OCC)C[C@H]2C(=O)NC2(CCC2)C(=O)N(C)[C@@H](C2CCCC2)C(=O)N(C)[C@H](C(=O)N(C)C)CC(=O)N1C [PP1767],NRAS/KRAS (KD ratio),[1],A (a compound having 10 or more and less than 20 is denoted as A)
same,IC50,[2],17.9 nM
same,HRAS/KRAS (KD ratio),[3],B (a compound having 3 or more and less than 10 is denoted as B)
same,Kd,[4],0.34 nM
CCO[C@@H]1C[C@H]2C(=O)N(C)C3(CCC3)C(=O)N(C)[C@@H](C3CCCC3)C(=O)N(C)[C@H](C(=O)N(C)C)CC(=O)N(C)[C@@H](CC)C(=O)N[C@@H]([C@@H](C)CC)C(=O)N(C)CC(=O)N(C)[C@H]3C/C=C\CCN(C3=O)[C@@H](Cc3ccc(C(F)(F)F)cc3)C(=O)N(C)CC(=O)N[C@@H](CCc3cc(F)c(C(F)(F)F)c(F)c3)C(=O)N2C1 [PP1779],NRAS/KRAS (KD ratio),[1],A (a compound having 10 or more and less than 20 is denoted as A)
same,IC50,[2],5.4 nM
same,HRAS/KRAS (KD ratio),[3],B (a compound having 3 or more and less than 10 is denoted as B)
same,Kd,[4],0.034 nM
CC[C@H](C)[C@@H]1NC(=O)[C@H](CC)N(C)C(=O)C[C@@H](C(=O)N(C)C)N(C)C(=O)[C@H](C2CCCC2)N(C)C(=O)C2(CCCC2)N(C)C(=O)[C@@H]2CCCN2C(=O)[C@H](CCc2cc(F)c(C(F)(F)F)c(F)c2)NC(=O)CN(C)C(=O)[C@H](Cc2ccc(C(F)(F)F)cc2)N2CC/C=C\C[C@@H](C2=O)N(C)C(=O)CN(C)C1=O [PP1805],NRAS/KRAS (KD ratio),[1],A (a compound having 10 or more and less than 20 is denoted as A)
same,IC50,[2],7 nM
same,HRAS/KRAS (KD ratio),[3],A (a compound having 10 or more and less than 20 is denoted as A)
same,Kd,[4],0.071 nM
CCO[C@@H]1C[C@H]2C(=O)NC3(CC(F)(F)C3)C(=O)N(C)[C@@H](C3CCCC3)C(=O)N(C)[C@H](CC)CC(=O)N(C)[C@@H](CC3CC3)C(=O)N[C@@H]([C@@H](C)CC)C(=O)N(C)CC(=O)N(C)[C@H]3C/C=C\CCN(C3=O)[C@@H](Cc3ccc(C(F)(F)F)cc3)C(=O)N(C)CC(=O)N[C@@H](CCc3cc(F)c(C(F)(F)F)c(F)c3)C(=O)N2C1 [PP1633],NRAS/KRAS (KD ratio),[1],A (a compound having 10 or more and less than 20 is denoted as A)
same,IC50,[2],15.1 nM
same,HRAS/KRAS (KD ratio),[3],B (a compound having 3 or more and less than 10 is denoted as B)
same,Kd,[4],0.6 nM
CCC[C@H]1C(=O)N[C@@H]([C@@H](C)CC)C(=O)N(C)CC(=O)N(C)[C@H]2C/C=C\CCN(C2=O)[C@@H](Cc2ccc(C)cc2)C(=O)N(C)CC(=O)N[C@@H](CCc2cc(F)c(C(F)(F)F)c(F)c2)C(=O)N2C[C@H](OCC)C[C@H]2C(=O)N(C)C2(CCC2)C(=O)N(C)[C@@H](C2CCCC2)C(=O)N(C)[C@H](C(=O)N(C)C)CC(=O)N1C [PP1793],NRAS/KRAS (KD ratio),[1],A (a compound having 10 or more and less than 20 is denoted as A)
same,IC50,[2],2.4 nM
same,HRAS/KRAS (KD ratio),[3],B (a compound having 3 or more and less than 10 is denoted as B)
same,Kd,[4],0.023 nM
CCC[C@H]1C(=O)N[C@@H]([C@@H](C)CC)C(=O)N(C)CC(=O)N(C)[C@H]2C/C=C\CCN(C2=O)[C@@H](Cc2ccc(C)cc2)C(=O)N(C)CC(=O)N[C@@H](CCc2ccc(C(F)(F)F)c(OC)c2)C(=O)N2C[C@H](OCC)C[C@H]2C(=O)NC2(CCC2)C(=O)N(C)[C@@H](C2CCCC2)C(=O)N(C)[C@H](C(=O)N(C)C)CC(=O)N1C [PP1871],NRAS/KRAS (KD ratio),[1],A (a compound having 10 or more and less than 20 is denoted as A)
same,IC50,[2],13.1 nM
same,HRAS/KRAS (KD ratio),[3],A (a compound having 10 or more and less than 20 is denoted as A)
same,Kd,[4],0.099 nM
